Measured values taken from patent publication US20230002389A1, “ADENINE ANALOGS, PRODRUGS, DERIVATIVES, COMPOSITIONS AND USES THEREOF” (priority 2021, published 2023).
“And” between values parts separate entries of the source, which are not always exact repeats. Equal entries are not always repeated. Where two headings read alike, the source gives them in different places. Values belong to the compound of their own block, whether it stands above or below them.

What was measured:
[1] = Pharmacokinetic analysis of T1-1 as a prodrug of MRS5474: plasma PK in mice after i.v. and p.o. dosing; format: in vivo, Male CD-1 mice; design: AUClast/D: unit not given here; conditions: CD-1 mice; for MRT inf: read-out: MRTInf_obs
Description: Pharmacokinetic Analysis of Compound T1-1 for Determination Utility as a Prodrug of MRS5474:
The dosing formulation (for i.v.) of T1-1 for mouse PK studies were prepared as 0.27 mg/mL solution of 10% DMSO+50% PEG400+40% WATER (Dissolved 1.19 mg of T1-1 in 0.441 mL of DMSO with vortexing and sonication, then added 2.204 mL of PEG400 and 1.763 mL of H2O with vortexing to obtain a solution). The dosing formulation (for p.o.) of T1-1 for mouse PK studies were prepared 2.71 mg/mL solution of 10% DMSO+50% PEG400+40% WATER (Dissolved 10.17 mg of in 0.375 mL of DMSO with vortexing and sonication, then added 1.876 mL […] of PEG400 and 1.501 mL of H2O with vortexing to obtain a solution.)
Animals: Male CD-1 mice (6-8 weeks of age), weighing 20-22 g; all animals were allowed to acclimate to this environment for one week prior to experimental manipulations.
Study Design: Study design The CD1 mice were given a single dose of T1-1 by bodyweight via intravenous (i.v.), or via oral gavage (p.o) administration. The blood and brain tissue samples were collected at intervals (h) of 0, 0.5, 1, 2, 4, 8, and 24. (n=3, each time point).
Plasma Sample Preparation: Approximately 0.3 mL blood will be collected at each time point. After collecting the blood at each time point, add 250 to 300 μL of the blood sample to Eppendorf tube containing EDTA solution+10 μL of inhibitor stock and vortexed for 15 minutes and then centrifugation at 4000 g for 5 minutes in a 4° C. centrifuge to obtain plasma.
The desired serial concentrations of working solutions were achieved by diluting a stock solution of the analyte with 50% acetonitiile in water solution. 5 μL of working solutions (5, 10, 20, 50, 100, 500, 1000, 5000, 10000 ng/mL) were added to 50 μL of the blank CD1 Mouse plasma to achieve calibration standards of 0.5-1000 ng/mL (0.5, 1, 2, 5, 10, 50, 100, 500, 1000 ng/mL) in a total volume of 55 μL. Five quality control samples at 1 ng/mL, 2 ng/mL, 5 ng/mL, 50 ng/mL, and 800 ng/mL for plasma were prepared independently of those used for the calibration curves. These QC samples were prepared on the day of analysis in the same way as calibration standards. 55 μL standards, 55 μL QC samples and 55 unknown samples (50 μL plasma with 5 μL blank solution) were added to 200 μL of acetonitrile containing IS mixture for precipitating protein respectively. Then the samples were vortexed for 30 s. After centrifugation at 4 degree Celsius, 3900 rpm for 15 min, the supernatant was diluted 3 times with water. 1 μL of diluted supernatant was injected into the LC/MS/MS system for quantitative analysis using (Shimadzu-DGU-20A5 integrated with AB AP15500 LCMS/MS instrument) with to determine plasma concentrations of T1-1 and the metabolite (parent compound) MRA5474. The data were analyzed for test article T1-1 and the metabolite (parent compound) MRA5474 for PK profile.
The mobile phase consisted of acetonitrile and water mixtures, solution A: 5% acetonitrile (0.1% formic acid) and solution B: 95% acetonitrile (0.1% formic acid) with gradient elution from 90 to 10% solution A over 1.71 min. The flow rate was 0.7 mL/min. YMC Triart C18 5 μm (50×2.1 mm) column was used for the separation of the sample components.
Results: Summary of IV and PO of Plasma Pharmacokinetic Parameters

Homer 1a = assay: Quantitative real-time PCR analysis of brain tissue after oral gavage of T1-1; format: in vivo, Male CD1 mice; conditions: PO(2 h); for % Vehicle Mean: group mean of 3 mice; for % Vehicle Average / % Vehicle n = 1 / % Vehicle n = 2 / Relative mRNA expression (2^(−ΔCt)) Average / Relative mRNA expression(2^(−ΔCt)) n = 1 / Relative mRNA expression(2^(−ΔCt)) n = 2: individual mice M31-M33
Description: Quantitative Real-Time PCR Analysis
Male CD1 mice were administered vehicle and test compound (T1-1) by oral gavage. After 2 hours, the were decapitated, and their brain samples were collected. Total RNA from the brain tissue were isolated using […], RNA integrity was confirmed, and the concentration was quantified by measuring the optical density. Reverse transcription was performed (Invitrogen) for cDNA synthesis according to the manufacturer's instructions. Real-time qPCR was performed on Real-Time PCR System using SYBR Green. The amplification reactions were performed as per the supplier's protocol.

[2] = IV(plasma), T1-1 dosed 1.35 mg/kg
[3] = IV(plasma), T1-1 dosed 1.35 mg/kg, analyte = label
[4] = PO(plasma), T1-1 dosed 13.55 mg/kg
[5] = male, mouse, IV(plasma), T1-1 dosed 1.35 mg/kg, analyte = label
[6] = male, mouse, IV(plasma), T1-1 dosed 1.35 mg/kg, analyte = label (T1-1 or metabolite MRS5474)
[7] = male, mouse, PO(plasma), T1-1 dosed 13.55 mg/kg, analyte = label

AUClast/D [1, 2]: 289.77
Vss_obs [1, 2]: 1.57 L/kg
AUC_% Extrap_obs [1, 3]: 0.93%
Cl_obs [1, 3]: 56.98 mL/min/kg
AUClast/D [1, 4]: 34.47
F [1, 4]: 11.90%
AUC(0-inf) [1, 5]: 395 ng·h/mL
AUC(0-t) [1, 5]: 391 ng·h/mL
C0 [1, 5]: 613 ng/mL
half-life [1, 6]: 0.29 h
MRT inf [1, 5]: 0.46 h
AUC(0-t) [1, 7]: 467 ng·h/mL
Cmax [1, 7]: 132 ng/mL
Tmax [1, 7]: 0.5 h
Structure (SMILES): O=C(NCN(c1nc(Cl)nc2c1ncn2[C@H]1[C@H](O)[C@H](O)[C@@H]2C[C@@H]21)C(C1CC1)C1CC1)c1ccccc1 [Compound T1-1, N-(((2-chloro-9-((1S,2R,3S,4R,5R)-3,4-dihydroxybicyclo [3.1.0]hexan-2-yl)-9H-purin-6-yl) (dicyclopropylmethyl)amino)methyl) benzamide]
% Vehicle Mean (Homer 1a; Homer 1a mRNA vs Actin): 112.74%
% Vehicle Average (Homer 1a; Homer 1a mRNA vs Actin): 131.98% and 104.88% and 101.37%
% Vehicle n = 1 (Homer 1a; Homer 1a mRNA vs Actin): 123.98% and 96.37% and 100.64%
% Vehicle n = 2 (Homer 1a; Homer 1a mRNA vs Actin): 139.98% and 113.39% and 102.10%
% Vehicle Mean (Homer 1a; Homer 1a mRNA vs GAPDH): 66.54%
% Vehicle Average (Homer 1a; Homer 1a mRNA vs GAPDH): 75.27% and 51.17% and 73.18%
% Vehicle n = 1 (Homer 1a; Homer 1a mRNA vs GAPDH): 72.27% and 49.10% and 72.10%
% Vehicle n = 2 (Homer 1a; Homer 1a mRNA vs GAPDH): 78.27% and 53.24% and 74.26%
Relative mRNA expression (2^(−ΔCt)) Average (Homer 1a; Homer 1a vs Actin): 0.51 and 0.41 and 0.40
Relative mRNA expression(2^(−ΔCt)) n = 1 (Homer 1a; Homer 1a vs Actin): 0.48 and 0.38 and 0.39
Relative mRNA expression(2^(−ΔCt)) n = 2 (Homer 1a; Homer 1a vs Actin): 0.55 and 0.44 and 0.40
Relative mRNA expression (2^(−ΔCt)) Average (Homer 1a; Homer 1a vs GAPDH): 0.1187 and 0.0807 and 0.1154
Relative mRNA expression(2^(−ΔCt)) n = 1 (Homer 1a; Homer 1a vs GAPDH): 0.1140 and 0.0774 and 0.1137
Relative mRNA expression(2^(−ΔCt)) n = 2 (Homer 1a; Homer 1a vs GAPDH): 0.1234 and 0.0840 and 0.1171

AUC_% Extrap_obs [1, 3]: 2.62%
AUC_% Extrap_obs ([1]; PO(plasma), T1-1 dosed 13.55 mg/kg, analyte = label): 0.08%
AUC(0-inf) [1, 5]: 321 ng·h/mL
AUC(0-t) [1, 5]: 313 ng·h/mL
Cmax [1, 5]: 127 ng/mL
Tmax [1, 5]: 1 h
half-life [1, 6]: 1.55 h
MRT inf [1, 5]: 2.32 h
AUC(0-inf) [1, 7]: 6990 ng·h/mL
AUC(0-t) [1, 7]: 6990 ng·h/mL
Cmax [1, 7]: 522 ng/mL
Tmax [1, 7]: 1 h
half-life [1, 7]: 2.32 h
MRT inf [1, 7]: 6.36 h
Structure (SMILES): O[C@@H]1[C@H](O)[C@@H]2C[C@@H]2[C@H]1n1cnc2c(NC(C3CC3)C3CC3)nc(Cl)nc21 [MRS5474, (1R,2R,3S,4R,5S)-4-(2-chloro-6-((dicyclopropylmethyl)amino)-9H-purin-9-yl) bicyclo [3.1.0] hexane-2,3-diol, reference compound]
